Measured values published in US10336707B2, “Heterocyclic derivatives modulating activity of certain protein kinases” (EUDENDRON S.R.L., priority 2014, dated 2019).

How the values were obtained:
BaF3 NPM-ALK C1156Y = molecular target: T1, BaF3 NPM-ALK C1156Y (Homo sapiens, UniProt Q9UM73, C1156Y, cells depend on it); experiment: Tritiated thymidine uptake cell proliferation assay, BaF3 NPM-ALK C1156Y; type: cell-based, murine; conditions: cell line BaF3 NPM-ALK C1156Y; read-out: IC50 of cellular proliferation, BaF3 NPM-ALK C1156Y
T1 construct: fused on or other part: P06748 (Nucleophosmin)
Experimental: Method: Tritiated Thymidine Uptake Cell Proliferation Assay
The following procedure was used with parent untransformed BaF3 cells, BaF3 cells transformed with the oncogenic fusion protein NPM/ALK, NPM/ALK positive SUDHL-1 cells, NPM/ALK positive SUPM2, ALK-negative HL60 cells, NPM/ALK positive KARPAS-299 cells. The parent untransformed BaF3 cells or Alk-negative HL60 cells are used as controls. Cells were seeded in U-bottomed 96-well plates at 10000 cells/well in a volume of 100 μl in supplemented medium. In the case of the parent untransformed BaF3 cells, the medium was supplemented with IL-3. Serial dilutions of inhibitors were added to the appropriate wells and volumes adjusted to 200 μl. Controls were treated with the equivalent volume of vehicle, DMSO, alone. Plates were incubated at 37° C. for 72 h. 3[H]-thymidine (1 μCi/well) was added for the last 16 h of incubation. Cells were harvested on to paper filters and 3[H]-thymidine incorporation was measured using a scintillation counter (1430 MicroBeta, Wallac, Turku, Finland). The 50% inhibitory concentration (IC50) was defined as the concentration of inhibitor, expressed in nanomolar units, that gave a 50% decrease in 3[H]-thymidine uptake compared with controls.
In Table 4 are reported the IC50 of cellular proliferation assays of example 3 versus ALK positive, mutated and negative cell lines.

DDR2 T654M = molecular target: T2, DDR2 T654M (Homo sapiens, UniProt Q16832, T654M); experiment: Radiometric protein kinase assay (33PanQuinase Activity Assay), DDR2 T654M; type: biochemical; conditions: ATP 0.3 μM
T2 construct: either as full-length or enzymatically active fragments; purchased ProQinase GmbH (Freiburg, Germany)
T2 sequence (Q16832 22-855 T654M): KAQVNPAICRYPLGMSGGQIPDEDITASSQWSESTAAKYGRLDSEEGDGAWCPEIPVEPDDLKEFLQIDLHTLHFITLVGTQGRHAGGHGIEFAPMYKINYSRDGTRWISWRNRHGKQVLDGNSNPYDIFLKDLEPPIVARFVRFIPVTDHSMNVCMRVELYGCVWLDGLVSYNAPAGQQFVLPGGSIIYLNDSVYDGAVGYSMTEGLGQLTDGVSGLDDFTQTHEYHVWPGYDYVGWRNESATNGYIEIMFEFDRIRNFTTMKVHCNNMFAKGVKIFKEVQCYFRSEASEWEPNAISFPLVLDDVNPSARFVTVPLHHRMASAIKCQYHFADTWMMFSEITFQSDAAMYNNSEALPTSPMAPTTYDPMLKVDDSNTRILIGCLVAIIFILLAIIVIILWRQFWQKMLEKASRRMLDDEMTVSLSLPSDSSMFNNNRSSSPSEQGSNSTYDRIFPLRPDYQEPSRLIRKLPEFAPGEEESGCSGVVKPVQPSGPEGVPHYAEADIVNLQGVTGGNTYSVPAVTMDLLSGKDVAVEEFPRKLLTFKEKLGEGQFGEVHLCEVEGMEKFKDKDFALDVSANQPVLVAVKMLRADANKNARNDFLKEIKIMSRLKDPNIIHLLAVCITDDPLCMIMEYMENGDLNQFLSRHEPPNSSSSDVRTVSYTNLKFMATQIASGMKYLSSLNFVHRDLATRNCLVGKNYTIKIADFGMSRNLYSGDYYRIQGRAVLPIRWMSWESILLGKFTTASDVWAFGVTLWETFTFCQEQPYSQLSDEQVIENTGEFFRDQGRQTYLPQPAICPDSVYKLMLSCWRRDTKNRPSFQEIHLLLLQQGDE
Experimental: A proprietary radiometric protein kinase assay (33PanQuinase® Activity Assay) developed by ProQuinase GmbH (Freiburg, Germany) was used for measuring the kinase activity of selected protein kinases. All assays were performed in FlashPlates™ wells 96 Perkin Elmer (Boston, Mass., USA) in a reaction volume of 50 μl. The reaction mixture was obtained in 4 steps in the following order: • 1. 10 μl of a solution of non-radioactive ATP in water; • 2. 25 μl of assay buffer/[γ-^33P]-ATP mixture • 3. 5 μl of test sample in 10% DMSO • 4. 10 μl of enzyme/substrate mixture
All protein kinases provided by ProQinase were expressed in Sf9 insect cells or in E. coli as recombinant GST-fusion proteins or His-tagged proteins, either as full-length or enzymatically active fragments. […] Kinases from external vendors (CAR=Carna Biosciences Inc.; INV=Life Technologies (Invitrogen Corporation); MIL=Merck-Millipore (Millipore Corporation), were expressed, purified and quality-controlled by virtue of the vendors readings.
A stock solution of compound of formula (I) was diluted to 5×10-04M/100% DMSO. […] Incorporation of 33Pi (counting of “cpm”) was determined with a microplate scintillation counter (Microbeta, Wallac). […]
Based on each 10 corresponding residual activities, IC50 values were calculated using Prism 5.04 for Windows (Graphpad, San Diego, Calif.). […]

T1 sequence (Q9UM73 whole entry C1156Y, the tested form may be a part): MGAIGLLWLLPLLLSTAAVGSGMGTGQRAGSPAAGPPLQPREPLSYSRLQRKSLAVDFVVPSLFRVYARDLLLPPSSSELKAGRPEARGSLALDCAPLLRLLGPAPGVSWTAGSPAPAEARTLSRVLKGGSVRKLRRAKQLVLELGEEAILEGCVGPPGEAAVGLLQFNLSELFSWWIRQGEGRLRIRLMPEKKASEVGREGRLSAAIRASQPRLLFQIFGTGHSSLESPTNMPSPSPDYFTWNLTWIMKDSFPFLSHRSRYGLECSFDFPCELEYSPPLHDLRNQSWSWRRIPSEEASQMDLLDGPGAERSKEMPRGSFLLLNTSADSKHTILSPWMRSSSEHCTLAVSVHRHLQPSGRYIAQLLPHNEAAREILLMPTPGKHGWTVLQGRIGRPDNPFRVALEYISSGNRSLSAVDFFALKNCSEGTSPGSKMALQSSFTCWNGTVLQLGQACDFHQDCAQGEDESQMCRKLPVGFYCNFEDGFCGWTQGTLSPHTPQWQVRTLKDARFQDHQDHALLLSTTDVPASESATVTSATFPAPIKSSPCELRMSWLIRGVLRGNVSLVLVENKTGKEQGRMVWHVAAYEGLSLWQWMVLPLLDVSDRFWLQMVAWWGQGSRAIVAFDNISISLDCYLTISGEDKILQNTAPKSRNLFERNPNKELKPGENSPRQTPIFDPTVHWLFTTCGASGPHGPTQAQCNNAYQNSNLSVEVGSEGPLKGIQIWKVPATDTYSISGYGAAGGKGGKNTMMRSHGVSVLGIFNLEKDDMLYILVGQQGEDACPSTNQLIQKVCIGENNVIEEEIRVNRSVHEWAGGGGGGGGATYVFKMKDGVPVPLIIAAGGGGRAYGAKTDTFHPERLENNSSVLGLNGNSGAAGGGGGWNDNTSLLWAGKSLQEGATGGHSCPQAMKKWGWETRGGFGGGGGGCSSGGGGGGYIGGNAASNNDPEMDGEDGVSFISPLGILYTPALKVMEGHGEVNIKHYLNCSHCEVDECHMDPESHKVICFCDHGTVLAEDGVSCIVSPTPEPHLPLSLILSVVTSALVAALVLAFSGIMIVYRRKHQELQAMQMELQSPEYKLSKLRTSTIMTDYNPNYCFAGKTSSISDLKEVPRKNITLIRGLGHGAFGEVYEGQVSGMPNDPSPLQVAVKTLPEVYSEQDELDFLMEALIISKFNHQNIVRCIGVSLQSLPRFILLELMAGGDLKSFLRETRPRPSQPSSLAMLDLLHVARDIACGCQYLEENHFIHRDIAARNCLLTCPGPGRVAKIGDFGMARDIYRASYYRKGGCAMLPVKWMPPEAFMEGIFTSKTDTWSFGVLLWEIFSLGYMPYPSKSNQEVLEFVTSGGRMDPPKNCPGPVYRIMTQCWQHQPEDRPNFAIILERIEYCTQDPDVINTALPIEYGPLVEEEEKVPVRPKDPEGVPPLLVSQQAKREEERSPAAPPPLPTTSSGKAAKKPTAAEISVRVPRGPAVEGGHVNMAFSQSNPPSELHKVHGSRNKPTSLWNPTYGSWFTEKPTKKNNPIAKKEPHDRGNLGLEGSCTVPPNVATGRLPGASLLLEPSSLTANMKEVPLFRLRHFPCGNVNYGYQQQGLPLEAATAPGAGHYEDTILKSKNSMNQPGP

CN1CCN(c2ccc(C(=O)Nc3n[nH]c4cc(-c5ccc(O)cc5)c(Cc5cc(F)cc(F)c5)cc34)c(NC3CCOCC3)c2)CC1 [Example 3, N-[5-[(3,5-difluorophenyl)methyl]-6-(4-hydroxyphenyl)-1H-indazol-3-yl]-4-(4-methylpiperazin-1-yl)-2-(tetrahydropyran-4-ylamino)benzamide]
GI50 (BaF3 NPM-ALK C1156Y): 34 nM
IC50 (DDR2 T654M): 84 nM
